# According to patent US9161993B2, “Charge triggering of self-organized nanoparticles” (Danmarks Tekniske Universitet, priority 2011, dated 2015):
# Biological target: Thermolysin (Bacillus thermoproteolyticus, UniProt P00800)
# Conditions: liposomes exposing RJ111; linker Trp-Ile-Pro-Val-Ser-Leu-Arg-Ser-Gly
# Protocol: The size and ζ-potential (zeta potential) of RJ111 formulated liposomes were measured before and after enzymatic cleavage of the RJ111 peptide linker using Thermolysin as a model enzyme. RJ111 formulated liposomes were mixed with a buffered solution of Thermolysine yielding final concentrations of: 2.2 mM lipid (220 μM RJ111), 220 μg/ml Thermolysine, 1 uM, ZnCl2 0.5 mM CaCl2, 30 mM HEPES and 125 mM NaCl. The reaction mixtures containing Thermolysine and RJ111 formulated in liposomes were heated to 37° C. for a period of 12 hours and the size and ζ-potential were subsequently measured in an equi-osmolar solution of 300 mM Glucose, 10 mM HEPES (pH 7.4) and 1 mM CaCl2. The ζ-potential and size of the non-cleaved RJ111 formulations were measured (ZetaPALS, Brookhaven Instruments Corp., Holtsville, N.Y., USA) in an equi-osmolar solution of 300 mM Glucose, 10 mM HEPES (pH 7.4) and 1 mM CaCl2.
# Sequence of Thermolysin (P00800 233-548, species assumed): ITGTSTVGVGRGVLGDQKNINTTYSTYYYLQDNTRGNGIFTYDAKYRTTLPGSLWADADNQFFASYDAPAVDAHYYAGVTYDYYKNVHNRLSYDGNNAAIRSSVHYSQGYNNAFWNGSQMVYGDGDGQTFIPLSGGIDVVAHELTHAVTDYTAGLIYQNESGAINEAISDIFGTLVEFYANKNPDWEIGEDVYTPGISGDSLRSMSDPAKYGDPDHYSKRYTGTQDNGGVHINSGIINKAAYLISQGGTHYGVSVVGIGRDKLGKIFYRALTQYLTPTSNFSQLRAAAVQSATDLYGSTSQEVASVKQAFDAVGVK
substance,measurement,value
(C14)2-dap-Trp-Ile-Pro-Val-Ser-Leu-Arg-Ser-Gly-Glu-Glu-Glu-Glu-PEG2000-OH [RJ111],cleavage of peptide linker by Thermolysine,efficiently was cleaved
